Assay results: patent publication US9156796B2, “Benzoimidazole-carboxylic acid amide derivatives as APJ receptor modulators” (SANOFI, priority 2013, dated 2015)

These molecules were tested against T1, human apelin receptor (Homo sapiens, UniProt P35414) (assay: Determination of agonism on the human apelin receptor by a calcium fluorescence assay (FLIPR)). Details: EC50 (APJ agonism), HEK293 cells stably transfected with human apelin receptor and Giaq protein, Fluo-4 calcium fluorescence.
T1 construct: expressed in transfected cells
T1 sequence (P35414 1-380): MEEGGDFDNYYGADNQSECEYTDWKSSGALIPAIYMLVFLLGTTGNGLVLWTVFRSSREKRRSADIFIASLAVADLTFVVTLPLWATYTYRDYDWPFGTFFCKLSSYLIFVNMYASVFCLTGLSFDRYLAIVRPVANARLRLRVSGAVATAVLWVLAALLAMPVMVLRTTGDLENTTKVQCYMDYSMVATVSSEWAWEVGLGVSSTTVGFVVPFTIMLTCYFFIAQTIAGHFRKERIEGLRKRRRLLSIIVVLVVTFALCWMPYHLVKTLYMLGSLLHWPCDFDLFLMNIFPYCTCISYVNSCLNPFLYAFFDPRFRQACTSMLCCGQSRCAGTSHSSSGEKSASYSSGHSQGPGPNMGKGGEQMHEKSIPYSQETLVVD
Type: cell-based
Outline: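 Agonist EC50s come from peak intracellular calcium transients recorded by FLIPR Tetra, scaled to the 1 μM apelin-13 maximum per plate. Test system: HEK293 stably transfected with human apelin receptor plus Giaq, Fluo-4-loaded (4 μM, 1 h, 37 °C, pH 7.4 buffer with probenecid); ≥7 concentrations, triplicates.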

Work on CCC(CC)n1c(Cc2cccs2)nc2cc(C(=O)NC(CO)C(C)C)ccc21 (stereo not drawn) [Example 189, 1-(1-Ethyl-propyl)-2-thiophen-2-ylmethyl-1H-benzoimidazole-5-carboxylic acid (1-hydroxymethyl-2-methyl-propyl)-amide] yielded an EC50 of 12.2 µM.

Same assay, conditions: HEK293 cells stably transfected with human apelin receptor and Giaq protein, Fluo-4 calcium fluorescence, read-out: EC50 (APJ agonism)

CCC(CC)n1c(Cc2cccs2)nc2cc(C(=O)N[C@@H](CC(C)C)[C@@H](O)CC(=O)O)ccc21 [Example 75, (3S,4S)-4-{[1-(1-Ethyl-propyl)-2-thiophen-2-ylmethyl-1H-benzoimidazole-5-carbonyl]-amino}-3-hydroxy-6-methyl-heptanoic acid] and CCCCC(CC(=O)O)NC(=O)c1ccc2c(c1)nc(Cc1cccs1)n2C(CC)CC (single isomer, unassigned) [Example 452] are within 1.5-fold of each other in EC50: 0.066 µM for the first, 0.049 µM for the second.

First: C[C@@H]1CCCC[C@H]1n1c(Cc2cccs2)nc2cc(C(=O)NC(CC3CCCC3)C(=O)O)ccc21 (single isomer, unassigned) [Example 442]
Second: CC(C)C[C@H](NC(=O)c1ccc2c(c1)nc(Cc1cccs1)n2C1CCCCC1C)C(=O)O (single isomer, unassigned) [Example 415]
The EC50 of the first is 4-fold lower: 0.134 µM for the first, 0.532 µM for the second. The first is the more potent here.

First: CC[C@H](C)[C@@H](CCC(=O)O)NC(=O)c1ccc2c(c1)nc(Cc1cccs1)n2[C@@H]1CCCC[C@H]1C [Example 72, (4R,5S)-5-Methyl-4-{[1-((1R,2R)-2-methyl-cyclohexyl)-2-thiophen-2-ylmethyl-1H-benzoimidazole-5-carbonyl]-amino}-heptanoic acid]
Second: CC(C)C[C@H](NC(=O)c1ccc2c(c1)nc(Cc1cccs1)n2C1CCCCC1C)C(=O)O (single isomer, unassigned) [Example 414]
The EC50 of the first is 14-fold lower: 0.047 µM for the first, 0.664 µM for the second. The first is the more potent here.

Going from CCC(CC)n1c(Cc2cccs2)nc2cc(C(=O)N[C@@H](CC(C)C)C(=O)N(C)CC3CCCO3)ccc21 (stereo partly drawn) [Example 387, 1-(1-Ethyl-propyl)-2-thiophen-2-ylmethyl-1H-benzoimidazole-5-carboxylic acid {(S)-3-methyl-1-[methyl-(tetrahydro-furan-2-ylmethyl)-carbamoyl]-butyl}-amide] to CCC(CC)n1c(Cc2cccs2)nc2cc(C(=O)N[C@@H](CC(C)C)C(=O)N(C)Cc3ccccc3)ccc21 [Example 263, 1-(1-Ethyl-propyl)-2-thiophen-2-ylmethyl-1H-benzoimidazole-5-carboxylic acid [(S)-1-(benzyl-methyl-carbamoyl)-3-methyl-butyl]-amide], the EC50 rises from 1.14 µM to 4.3 µM (3.8-fold).

Going from CC(C)C[C@@H](CC(=O)O)NC(=O)c1ccc2c(c1)nc(Cc1cncs1)n2[C@@H]1CCCC[C@H]1C [Example 106, (S)-5-Methyl-3-{[1-((1R,2R)-2-methyl-cyclohexyl)-2-thiazol-5-ylmethyl-1H-benzoimidazole-5-carbonyl]-amino}-hexanoic acid] to CCC(CC)n1c(Cc2cncs2)nc2cc(C(=O)N[C@H](CC(=O)O)CC(C)C)ccc21 [Example 50, (S)-3-{[1-(1-Ethyl-propyl)-2-thiazol-5-ylmethyl-1H-benzoimidazole-5-carbonyl]-amino}-5-methyl-hexanoic acid], the EC50 rises from 0.048 µM to 0.205 µM (4.3-fold).

First: CCC[C@H](NC(=O)c1ccc2c(c1)nc(Cc1cccs1)n2C(CC)CC)C(=O)O [Example 94, (S)-2-{[1-(1-Ethyl-propyl)-2-thiophen-2-ylmethyl-1H-benzoimidazole-5-carbonyl]-amino}-pentanoic acid]
Second: CCCC[C@H](NC(=O)c1ccc2c(c1)nc(Cc1cccs1)n2C(CC)CC)C(=O)O [Example 18, (S)-2-{[1-(1-Ethyl-propyl)-2-thiophen-2-ylmethyl-1H-benzoimidazole-5-carbonyl]-amino}-hexanoic acid]
The EC50 of the first is 5.2-fold higher: 0.781 µM for the first, 0.15 µM for the second.

First: CCC(CC)n1c(Cc2cscn2)nc2cc(C(=O)N[C@H](COC)CC(C)C)ccc21 [Example 206, 1-(1-Ethyl-propyl)-2-thiazol-4-ylmethyl-1H-benzoimidazole-5-carboxylic acid ((S)-1-methoxymethyl-3-methyl-butyl)-amide]
Second: CCOC[C@H](CC(C)C)NC(=O)c1ccc2c(c1)nc(Cc1cccs1)n2C(CC)CC [Example 208, 1-(1-Ethyl-propyl)-2-thiophen-2-ylmethyl-1H-benzoimidazole-5-carboxylic acid ((S)-1-ethoxymethyl-3-methyl-butyl)-amide]
The EC50 of the first is 2-fold higher: 2.3 µM for the first, 1.16 µM for the second. The second is the more potent here.

Going from CCC(CC)n1c(Cc2cccs2)nc2cc(C(=O)N[C@@H](CC(C)C)C(=O)N(C)Cc3ccccc3OC)ccc21 [Example 256, 1-(1-Ethyl-propyl)-2-thiophen-2-ylmethyl-1H-benzoimidazole-5-carboxylic acid {(S)-1-[(2-methoxy-benzyl)-methyl-carbamoyl]-3-methyl-butyl}-amide] to CCOCCNC(=O)[C@H](CC(C)C)NC(=O)c1ccc2c(c1)nc(Cc1cccs1)n2C(CC)CC [Example 383, 1-(1-Ethyl-propyl)-2-thiophen-2-ylmethyl-1H-benzoimidazole-5-carboxylic acid [(S)-1-(2-ethoxy-ethylcarbamoyl)-3-methyl-butyl]-amide], the EC50 falls from 5.92 µM to 2.12 µM (2.8-fold). The second is the more potent here.

Compared with CCC(CC)n1c(Cc2ccco2)nc2cc(C(=O)N[C@@H](CC(C)C)C(=O)O)ccc21 [Example 81, (S)-2-{[1-(1-Ethyl-propyl)-2-furan-2-ylmethyl-1H-benzoimidazole-5-carbonyl]-amino}-4-methyl-pentanoic acid], CCC(CC)n1c(Cc2ccco2)nc2cc(C(=O)NC(C)(CCSC)C(=O)O)ccc21 (stereo not drawn) [Example 14, 2-{[1-(1-Ethyl-propyl)-2-furan-2-ylmethyl-1H-benzoimidazole-5-carbonyl]-amino}-2-methyl-4-methylsulfanyl-butyric acid] is higher in EC50: < 0.041 µM for the first, 1.34 µM for the second. The first is the more potent here.

First: CCCC1CCN(CCCNC(=O)[C@H](CC(C)C)NC(=O)c2ccc3c(c2)nc(Cc2cccs2)n3C(CC)CC)CC1 [Example 354, 1-(1-Ethyl-propyl)-2-thiophen-2-ylmethyl-1H-benzoimidazole-5-carboxylic acid {(S)-3-methyl-1-[3-(4-propyl-piperidin-1-yl)-propylcarbamoyl]-butyl}-amide]
Second: CCC(CC)n1c(Cc2cccs2)nc2cc(C(=O)N[C@@H](CC(C)C)C(=O)NCCCN3CCN(CC)CC3)ccc21 [Example 278, 1-(1-Ethyl-propyl)-2-thiophen-2-ylmethyl-1H-benzoimidazole-5-carboxylic acid {(S)-1-[3-{4-ethyl-piperazin-1-yl)-propylcarbamoyl]-3-methyl-butyl}-amide]
The EC50 of the first is 2.5-fold higher: 0.998 µM for the first, 0.405 µM for the second. The second is the more potent here.

Going from CCC(CC)n1c(Cc2cccs2)nc2cc(C(=O)N[C@@H](CC(C)C)C(=O)NCCc3n[nH]c(=O)[nH]3)ccc21 [Example 406, 1-(1-Ethyl-propyl)-2-thiophen-2-ylmethyl-1H-benzoimidazole-5-carboxylic acid {(S)-3-methyl-1-[2-(5-oxo-4,5-dihydro-1H-[1,2,4]triazol-3-yl)-ethylcarbamoyl]-butyl}-amide] to CCC(CC)n1c(Cc2cccs2)nc2cc(C(=O)N[C@@H](CC(C)C)C(=O)NCCCCN3CCCC3)ccc21 [Example 253, 1-(1-Ethyl-propyl)-2-thiophen-2-ylmethyl-1H-benzoimidazole-5-carboxylic acid [(S)-3-methyl-1-(4-pyrrolidin-1-yl-butylcarbamoyl)-butyl]-amide], the EC50 falls from 1.11 µM to 0.242 µM (4.6-fold).

Compared with CCC(CC)n1c(Cc2cccs2)nc2cc(C(=O)N[C@@H](CC(C)C)C(=O)NC3CCN(c4ccccc4)CC3)ccc21 [Example 317, 1-(1-Ethyl-propyl)-2-thiophen-2-ylmethyl-1H-benzoimidazole-5-carboxylic acid [(S)-3-methyl-1-(1-phenyl-piperidin-4-ylcarbamoyl)-butyl]-amide], CCC(CC)n1c(Cc2cccs2)nc2cc(C(=O)NC(CC(C)C)c3nnc(C)o3)ccc21 (stereo not drawn) [Example 481, 1-(1-Ethyl-propyl)-2-thiophen-2-ylmethyl-1H-benzoimidazole-5-carboxylic acid [3-methyl-1-(5-methyl-[1,3,4]oxadiazol-2-yl)-butyl]-amide] is 4-fold lower in EC50: 14 µM for the first, 3.48 µM for the second.

First: CCC(C)Cn1c(Cc2ccsc2)nc2cc(C(=O)N[C@@H](CC(C)C)C(=O)O)ccc21 (stereo partly drawn) [Example 137, (S)-4-Methyl-2-{[1-(2-methyl-butyl)-2-thiophen-3-ylmethyl-1H-benzoimidazole-5-carbonyl]-amino}-pentanoic acid]
Second: CC(C)C[C@H](NC(=O)c1ccc2c(c1)nc(Cc1ccoc1)n2C1CCCCC1)C(=O)O [Example 138, (S)-2-[(1-Cyclohexyl-2-furan-3-ylmethyl-1H-benzoimidazole-5-carbonyl)-amino]-4-methyl-pentanoic acid]
The EC50 of the first is 3.2-fold higher: 9.5 µM for the first, 2.93 µM for the second. The second is the more potent here.

First: CC(C)Cn1c(CC2CCCCC2)nc2cc(C(=O)N[C@@H](CC3CCCCC3)C(=O)O)ccc21 [Example 134, (S)-3-Cyclohexyl-2-[(2-cyclohexylmethyl-1-isobutyl-1H-benzoimidazole-5-carbonyl)-amino]-propionic acid]
Second: CCC(CC)n1c(Cc2cccs2)nc2cc(C(=O)NC3(C(=O)O)CCCCCC3)ccc21 [Example 1, 1-{[1-(1-Ethyl-propyl)-2-thiophen-2-ylmethyl-1H-benzoimidazole-5-carbonyl]-amino}-cycloheptanecarboxylic acid]
The EC50 of the first is 20-fold higher: 7.15 µM for the first, 0.359 µM for the second.

CCC(CC)n1c(Cc2cccs2)nc2cc(C(=O)NC3(CC(=O)O)CCCCC3)ccc21 [Example 64, (1-{[1-(1-Ethyl-propyl)-2-thiophen-2-ylmethyl-1H-benzoimidazole-5-carbonyl]-amino}-cyclohexyl)-acetic acid] showed an EC50 of 0.176 µM.
